Experimental data taken from patent US7375243B2, “Method for preparation of amino acid chelate” (MD Bioalpha Co., Ltd., priority 2002, dated 2008).

What was measured:
calcium-starved rats = experiment: Test of the degree of absorption of Ca-supplying agents in calcium-starved rats; conditions: for Length of fibula / Weight of fibula: Ca-starved rats, Ca-supplying agent orally for one week with Ca-free diet
Description: 3-week old Sprague-Dawley male rats (Daehan Biolink Co., Ltd., Korea) were employed for the present experiment after adjustment to an elementary diet These rats were divided into a normal group and an experimental group. The diet for the normal group (“normal diet”) was prepared based upon AIN-76 diet composition, whereas the diet for the experimental group (“Ca-flee diet” or “experimental diet”) was prepared by replacing a mineral mixture in the normal diet composition with a Ca deficient mineral mixture. […] These Ca-supplying agents were orally administered to each group along with the Ca-free diet for one week before the rats were sacrificed.
The concentration of Ca-supplying agent in the oral administration was ⅓ of the concentration of calcium in AIN-76 mineral mixture, which corresponds to 10 times the recommended amount for adult males. 3× distilled water was used for preparation of the experimental diet and was also was fed to rats for maintenance. The compositions of diets administered to the normal group and experimental groups, respectively, are described in TABLE 8 as below.
The abdomens of the rats were cut open under ether anesthesia, then blood was harvested from abdominal aorta, and major organs such as liver, kidney, spleen, etc. were […], followed by the extraction of fibula. The blood was centrifuged at 3000 rpm for 10 minutes to separate serum. Each organ and bone was trimmed and washed with normal saline and moisture on the surface thereof was removed to measure the weight and length thereof.
The content of calcium in serum and urine was measured by Calcium Reagent Arsenazo III kit (Sigma Corp., U.S.A). In order to measure the content of calcium in feces, the feces (sample) was put in a Pyrex beaker and the weight thereof was measured to 0.1 mg unit, then 5 ml of HNO3 and 2 ml of H2O2 were added and the beaker was left uncovered on a hot plate. The acid-digested sample was cooled and 2 ml of H2O2 was added thereto, followed by heating. Next, the acid was sufficiently volatilized to make the concentration of HNO3 to 1-5%, followed by the analysis with ICP-AES (inductively Coupled Plasma Atomic Emission Spectrometer). The condition for analysis is given below. • Model: Jobin Yvon 138 Ultrace • Source: Argon plasma (6000 K) • Spectral range: 160-800 nm • Resolution: 0.005 nm (UV) • Detection limit: 1×ppb˜100×ppb • Wavelength for analysis: 393.366 nm 3. Effect On Weight of Major Organs

Fe-starved rats = experiment: Effect of Fe-supplying agents on the absorption of Fe in Fe-starved rats
Description: 3-week old Sprague-Dawley male rats (Daehan Biolink Co., Ltd., Korea) were employed for the present experiment after application of an elementary diet for one week. These rats were divided into a normal group and an experimental group. The diet for the normal group (“normal diet”) was prepared based upon AIN-76 diet composition, whereas the diet for the experimental group (“Fe-free diet” or “experimental diet”) was prepared by replacing a mineral mixture in the normal diet composition with a Fe-deficient mineral mixture. […] These Fe-supplying agents were orally administered to rats along with the experimental diet for one week before the rats were sacrificed.
The concentration of Fe-supplying agent for the oral administration was 10 times the recommended amount for adult males. 3× distilled water was used for preparation of the experimental diet and was fed to rats for maintenance. The compositions of diets administered to the normal group and experimental group, respectively, are described in TABLE 14 below.
Rats were adapted to a cage for one week before the start of the experiment, and their feces were collected for a final 3 days. On the final day, the abdomen was cut open under ether anesthesia, then blood was harvested from abdominal aorta, and major organs such as liver, kidney, spleen, etc. were extracted. […] Each organ was trimmed and washed with normal saline, then moisture on the surface thereof was removed to measure the weight and length.
CBC (Complete Blood Count: Red blood cell; RBC, white blood cell; WBC, Hematocrits; HCT, Hemoglobin; Hb) was measured from the anticoagulated blood, and IRON and TIBC Total Iron Binding Capacity) were measured from the blood serum. CBC was measured by an automatic analyzer (ADVIA 120, Bayer, U.S.A). As reagents, Isoton III (Beckman Coulter, U.S.A), Coulter clenz (Beckman Coulter), Lyse S III (Beckman Coulter), 4% sodium hypochloride-solution (Beckman Coulter) and 4C-plus (Beckman Coulter), Scatter Pak (Beckman Coulter) were used.
All data obtained in the present experiment were expressed with the mean standard error using the SAS program. T-test in each group was carried out at a range of P<0.05 by Duncan's multiple comparison test.

[1] = Stability of amino acid chelate on storage in aqueous solutions; type: physicochemical; conditions: distilled water and buffer at pH 3, 5, 7, 9, commercial beverages, cosmetics, ALGI; stored at 4, 25 and 50° C. for 3 months
Description: The following experiment was carried out to ascertain the stability of amino acid chelate compound, obtained in EXAMPLE 1, on its storage in an aqueous solution for a long time.
• 1) preparation of samples by adding the above amino acid chelate compound into distilled water adjusted to pH 3, 5, 7 and 9, respectively. • 2) preparation of samples by adding the above amino acid chelate compound into solutions adjusted to pH 3, 5, 7 and 9 using buffer, respectively. • 3) preparation of samples by adding the above amino acid chelate compound into selected commercially available beverages (MIEROFIBER® (Hyundai Pharm., Korea), BACCHUS® (Donga Pharm., Korea) and orange juice (HaeTae Beverage Corp., Korea)), respectively. • 4) preparation of samples by adding the above amino acid chelate compound into selected commercially available cosmetics (ISA KNOX® (LG Chemical Corp., Korea), MAMONDE® (AmorePacific Corp., Korea)) • 5) preparation of samples by adding the above amino acid chelate compound into ALGI® (GG Tech. Co. Ltd., Korea) as a plant growth-accelerating agent
The above samples were stored at 4, 25 and 50° C., respectively, and then tested for any precipitation or change in pH. […]

[2] = Fe-starved rats, oral for one week

Concentration of calcium in serum (calcium-starved rats; rat, in vivo, po) [mg/dL] | Concentration of calcium in urine (calcium-starved rats; rat, in vivo, po) [mg/dL] | Kidney weight (calcium-starved rats; rat, in vivo, po) [mg/BW] | Spleen weight (calcium-starved rats; rat, in vivo, po) [mg/BW] | Molecule | Length of fibula (calcium-starved rats) [mm] | Weight of fibula (calcium-starved rats) [g] | RBC (Fe-starved rats; [2]) | TIBC (total iron binding capacity) in serum (Fe-starved rats; [2]) [µg/dL] | WBC (Fe-starved rats; [2]) | further results
9.13 ± 0.21 | 0.22 ± 0.01 | 8.60 ± 0.40 | 3.00 ± 0.00 | O=C([O-])[O-].[Ca+2] [CaCO3] | 30.03 ± 1.10 | 0.332 ± 0.033 | – | – | – | Concentration of serum-calcium in blood collected from eyeball (calcium-starved rats; rat, in vivo, po): 8.52 ± 0.27 mg/dL
– | – | – | – | Heme iron | – | – | 7.01 ± 0.16 ×10^6/mm^3 | 824.63 ± 11.60 | 6.12 ± 0.37 ×10^3/mm^3 | HCT (Fe-starved rats; [2]): 36.11 ± 0.89%; TS (transferrin saturation) (Fe-starved rats; [2]): 17.07%; IRON in serum (Fe-starved rats; rat, in vivo, po): 140.8. ± 25.55 μg/dl; Kidney weight (Fe-starved rats; rat, in vivo, po): 7.20 ± 0.13 mg/BW; Spleen weight (Fe-starved rats; rat, in vivo, po): 2.78 ± 0.15 mg/BW
– | – | – | – | Seaweed Calcium-Glutamic Acid Chelate [EXAMPLE 1] | – | – | – | – | – | precipitation or change in pH [1]: no precipitation or remarkable change in pH
– | – | – | – | calcium-aspartic acid chelate [Asp-Ca] | 30.88 ± 1.87 | 0.327 ± 0.031 | – | – | – | –
– | – | – | – | iron-aspartic acid chelate [Fe-Asp] | – | – | 7.32 ± 0.35 ×10^6/mm^3 | 735.44 ± 9.30 | 6.02 ± 0.46 ×10^3/mm^3 | –
10.44 ± 0.07 | 0.32 ± 0.02 | 8.20 ± 0.20 | 3.00 ± 0.32 | seaweed calcium [SW-Ca] | – | – | – | – | – | –
